Source: patent US6743798B1, “Substituted pyrazole derivatives condensed with six-membered heterocyclic rings” (Bayer Aktiengesellschaft, priority 1998, dated 2004)
Like-named read-outs stand apart in the source and are kept apart here.

Experiments:
[1] = test system: soluble guanylate cyclase; experiment: Stimulation of soluble guanylate cyclase in primary endothelial cells; format: cell-based, pig; conditions: for Increase in the cGMP concentration (%): test substances final concentration 1 μM, 10 minutes, primary endothelial cells from pig aortas
Description: Primary endothelial cells were isolated from pig aortas by treatment with collagenase soln. The cells were then cultured in culture medium at 37 °C/5% CO2 until confluence was reached. For the investigations, the cells were passaged, inoculated into 24-well cell culture plates and subcultured until reaching confluence (˜2×10^5 cells/well). For the stimulation of endothelial guanylate cyclase, the culture medium was aspirated and the cells were washed once with Ringer solution. After removing the Ringer solution, the cells were incubated for 10 minutes at 37° C./5% CO2 in stimulation buffer with or without NO donor (sodium nitroprusside, SNP or DEA/NO 1 μM). […] After the incubation time had ended, the buffer solution was aspirated and cold buffer at 4° C. was added to the cells. The cells were then lysed at −20° C. for 16 hours. The supernatants containing the intracellular cGMP were then removed and the cGMP concentration was determined by means of the cGMP-SPA system (Amersham Buchler, Brunswick).

[2] = test system: rabbit aortal rings preconcentrated with phenylephrine; experiment: Vasorelaxant action in vitro; format: cell-based; conditions: Oryctolagus cuniculus, read-out: IC50 [μM] vasorelaxant action
Description: (§1) To determine the cardiovascular action, the following investigations were carried out: In in vitro investigations on the isolated and on cells of vascular origin, the effect on guanylate cyclase-dependent cGMP formation was tested with and without NO donor. The anti-aggregatory properties were shown on human platelets stimulated with collagen. The vasorelaxant action was determined in rabbit aortal rings preconcentrated with phenylephrine. The hypotensive action was investigated in anaesthetized and awake rats.
Rabbits are anaesthetized by a blow to the neck and exanguinated. The aorta is removed, freed from adhering tissue, divided into 1.5 mm wide rings and individually transferred under a pretension into 5 ml organ baths containing a warm, carbogen-aerated Krebs-Henseleit solution at 37° C. of the following composition (mM): NaCl: 119; KCl: 4.8; CaCl2×2H2O: 1; MgSO4×7H2O; 1.4; KH2PO4: 1.2; NaHCO3: 25; glucose: 10. The contractility is detected using Statham UC2 cells, amplified and digitalized by means of A/D converters (DAS-1802 HC, Keithley Instruments Munich), and recorded in parallel on linear recorders. To produce a contraction, phenylephrin is added to the bath cumulatively in increasing concentration. […]

anaesthetized rats = experiment: Blood pressure measurements in anaesthetized rats; format: in vivo, rat
Description: Male Wister rats having a bodyweight of 300-350 g are anaesthetized with Thiopental (100 mg/kg i.p.). After tracheotomy, a catheter is inserted into the femoral artery for blood pressure measurement. The substances to be tested are administered orally in Transcutol, Cremophor EL, H2O (10%/20%/70%) in a volume of 1 ml/kg.

[3] = test system: human platelets stimulated with collagen; experiment: Inhibition of platelet aggregation in vitro; format: cell-based; conditions: 10 min, collagen-induced aggregation, 10 min incubation at 37° C.
Description: as §1
To determine the platelet-aggregation, blood from healthy volunteers of both sexes was used. As an anticoagulant, 9 parts of blood were admixed to one part of 3.8% strength sodium citrate solution. The blood was centrifuged at 900 rpm for 20 min. The pH of the platelet-rich plasma obtained was adjusted to pH 6.5 using ACD solution (sodium citrate/citric acid/glucose). The platelets were subsequently centrifuged off and resuspended in buffer and once more centrifuged off. The platelet pellet was suspended in buffer and mixed with an additional 2 mmol/l of CaCl2.
To measure the aggregation, aliquots of the platelet suspension were incubated with the substance to be tested at 37° C. for 10 min.

## Nc1nc(-c2nn(Cc3ccccc3F)c3ncccc23)ncc1CC(F)(F)F [Example 8]
other
  melting point: 181 °C

## NC(=O)c1cnc(-c2nn(Cc3ccccc3F)c3ncccc23)nc1N [Example 6]
[1]
  Increase in the cGMP concentration (%): 600%
other
  melting point: 215 °C

## Nc1nc(-c2nn(Cc3ccccc3F)c3ncccc23)nc(N)c1N1CCOCC1 [Example 16, 3-(4,6-Diamino-5-N-morpholinopyrimidin-2-yl)-1-(2-fluorobenzyl)-1H-pyrazolo[3,4-b]pyridine]
[1]; Ex. 16 0.1 μM
  cGMP (pmol/well): 5.1 pmol/well
[1]; Ex. 16 0.3 μM
  cGMP (pmol/well): 13.2 pmol/well
[1]; Ex. 16 1.0 μM
  cGMP (pmol/well): 20.8 pmol/well
[1]; Ex. 16 3.0 μM
  cGMP (pmol/well): 34.5 pmol/well
[1]; Ex. 16 10 μM
  cGMP (pmol/well): 47.7 pmol/well
[2]
  IC50: 0.2 µM
Anaesthetized rats; 0.3 mg/kg p.o.
  max. reduction in blood pressure (mm Hg): 21 mm Hg
Anaesthetized rats; 1.0 mg/kg p.o.
  max. reduction in blood pressure (mm Hg): 35 mm Hg
[3]
  IC50: 0.06 µM

## CS(=O)(=O)c1cnc(-c2nn(Cc3ccccc3F)c3ncccc23)nc1N [Example 1, 3-(4-Amino-5-methylsulphonylpyrimidin-2-yl)-1-(2-fluorobenzyl)-1H-pyrazolo[3,4-b]pyridine]
[1]
  Increase in the cGMP concentration (%): >1000%
[2]; rabbit aorta rings, phenylephrin contraction reduced by 50%
  IC50: 0.23 µM

## Cc1ccc(-c2nc(-c3nn(Cc4ccccc4F)c4ncccc34)ncc2C#N)cc1 [Example 14, 3-[5-Cyano-4-(4-methylphenyl)pyrimidin-2-yl]-1-(2-fluorobenzyl)-1H-pyrazolo[3,4-b]pyridine]
[1]
  Increase in the cGMP concentration (%): >1000%
